According to PubChem BioAssay (NCI):
“And” between values parts separate entries of the source, which are not always exact repeats. Identical values can stand only once.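 Compound exposure: 48 hours, 5 concentrations, 96-well plates. GI50: concentration for 50% inhibition of growth. TGI is the concentration that stops growth completely.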 *1 amine or outer side, *2 acyl side, *3 side chain or, on linkers, in order; H or OH if unused. Where a SMILES comes first, the peptide text is derived from it. [ ]: non-standard residue; d: D form. The star is where a group is joined. X11 = C/C=C/CC(C)C(O)[C@H](N[*:1])C(=O)[*:2]; Decanoyl = CCCCCCCCCC(=O)*; Leu(ol) = CC(C)C[C@H](N)CO; Iva = CC[C@](C)(N)C(=O)O; Aib = CC(C)(N)C(=O)O

What follows are molecules tested on MDA-MB-468 breast (assay: growth of human tumour cells (NCI), 48 h).
For `CC1(COc2ccc3c(c2)ncn3-c2ccc3cccc(N4CCC(N)CC4)c3n2)COC1`, the GI50 was 1340 nM and 2000 nM and the TGI was 2940 nM and 4950 nM.
Work on `Nc1n[nH]c2cccc(C#Cc3cccc(C(=O)Nc4ccc(CN5CCOCC5)c(C(F)(F)F)c4)c3)c12` yielded a GI50 of 2870 nM and a TGI of 9720 nM.
In the case of `O=C1NC(=NC(CO)Cc2ccccc2)S/C1=C\c1ccc2ncccc2c1` (centres undefined), the GI50 is reported as 7070 nM and 2140 nM and the TGI is reported as > 25000 nM and 13700 nM.
With `Nc1n[nH]c2cc(F)c([C@@H]3Nc4ccc5[nH]ncc5c4[C@H]4C5CCC(C5)[C@@H]34)cc12` (some centres undefined) the GI50 was 150 nM and the TGI was 1900 nM.
In the case of `Nc1c(C(=O)Nc2cccc(C(F)(F)F)c2)sc2nc3c(cc12)CCCCC3`, the GI50 is reported as 394 nM and the TGI is reported as 3010 nM.
With `Nc1ccccc1SC(CC(=O)c1ccccc1)c1cccc([N+](=O)[O-])c1` (centres undefined) the GI50 was 15400 nM and the TGI was 31300 nM.
Work on `Cc1cc(C)cc(NC2=C(Cl)C(=O)c3nc(C)ccc3C2=O)c1` yielded a GI50 of 1640 nM and a TGI of 3200 nM.
Work on `Nc1cc(NN=C(c2ccc(O)cc2)c2ccc(O)cc2)c([N+](=O)[O-])cc1[N+](=O)[O-]` yielded a GI50 of 2190 nM and a TGI of 4820 nM.
`CN(C)c1cc(NN=C(c2ccc(O)cc2)c2ccc(O)cc2)c([N+](=O)[O-])cc1[N+](=O)[O-]` gave a GI50 of 10100 nM and a TGI of 22600 nM.
`COc1cc(/C(C#N)=C/c2nc3c(N4CCOCC4)nc(Cl)nc3n2C)cc(OC)c1OC` gave a GI50 of less than 13.1 nM.
With `COc1ccc(/C=N/NC(=O)c2cccc3cc[nH]c23)cc1O` the GI50 was 3350 nM and the TGI was greater than 25200 nM.
`CC(C)[C@@H]1C=C2CC[C@H]3[C@](C)(CN)CCC[C@]3(C)[C@H]2CC1` showed a GI50 of 13200 nM and a TGI of 28200 nM.
`CCCOc1cc2ccccc2cc1C(=O)Nc1nc(N)c2c(ccc3nccc32)[nH]1` showed a GI50 of 54.2 nM and a TGI of 516 nM.
`C/C=C/CC(C)C(O)[C@H](NC(=O)[C@@H]1CCCN1C(=O)C(C)(C)NC(=O)CCCCCCCCC)C(=O)N[C@@](C)(CC)C(=O)N[C@@H](CCC(N)=O)C(=O)N[C@H](CCC(N)=O)C(=O)NC(C)(C)C(=O)NC(C)(C)C(=O)N[C@@H](CCC(N)=O)C(=O)N[C@H](CC(C)C)C(=O)N[C@H](CO)CC(C)C` (stereo partly drawn) (Decanoyl-[Aib]P[X11][Iva]Q[dQ][Aib][Aib]Q[dL][Leu(ol)]) gave a GI50 of 1790 nM and a TGI of 3420 nM.
With `Cc1csc(-c2nnc(Nc3ccc(Oc4ncccc4-c4ccnc(N)n4)cc3)c3ccccc23)c1` the GI50 was less than 11.5 nM and the TGI was greater than 100000 nM.
Work on `COc1ccc(-c2cn[nH]c2-c2cc(OC)c(OC)c(OC)c2)cc1` yielded a GI50 of 42.2 nM and a TGI of 30300 nM.
Molecule `O=C1c2cc3c(cc2-c2c1c1ccc(F)cc1c(=O)n2C[C@H](O)[C@@H](O)[C@H](O)CO)OCO3` has a GI50 of 27.4 nM and a TGI of 75.9 nM.
`COc1ccc(CN2C(=O)/C(=C\c3cc(OC)c(OC)c(OC)c3)c3ccccc32)cc1` showed a GI50 of 1940 nM and a TGI of 5610 nM.
With `C=C1C(=O)O[C@H]2[C@H]1CC/C(COC(=O)NCc1ccc(Cn3c(=O)sn(-c4ccc(OC)cc4)c3=O)cc1)=C\CC[C@@]1(C)O[C@@H]21` the GI50 was 1530 nM and the TGI was 3540 nM.
`CCCCCCCCCCn1cc[n+](C)c1` gave a GI50 of 481 nM.
With `Cc1nnc(NC(=O)c2nc(S(=O)(=O)Cc3ccc(F)cc3)ncc2Cl)s1` the GI50 was 1200 nM and the TGI was 3280 nM.
`COc1cccc(C(=O)NC(c2ccc(C)cc2)c2cc(Cl)c3cccnc3c2O)c1` (centres undefined) was tested, and the GI50 was 397 nM and the TGI was 2720 nM.
Work on `COc1ccc([C@H]2[C@H](O)C(=O)N2c2cc(OC)c(OC)c(OC)c2)cc1O` yielded a GI50 of less than 10 nM and a TGI greater than 100000 nM.
`c1ccc(Sc2ncnc3ccccc23)cc1` was tested, and the GI50 was 2980 nM and the TGI was 12300 nM.
For `COC[C@H]1Cn2cc(-c3nc(Nc4ccnn4C)ncc3C)nc2C(=O)N1Cc1ccc(F)c(F)c1`, the GI50 was 26300 nM and the TGI was greater than 100000 nM.
`COc1ccc(CCN=C2NC(=O)/C(=C/c3ccc4ncccc4c3)S2)cc1` showed a GI50 greater than 18700 nM and a TGI greater than 25000 nM.
With `CN1CCN(Cc2ccc(NC(=O)c3cncc(C#Cc4cnc5ccc(N6CCSCC6)nn45)c3)cc2C(F)(F)F)CC1` the GI50 was 146 nM and the TGI was 302 nM.
Work on `CN1CC[C@@H](NC(=O)Nc2ccc(C#N)cc2)C[C@@H]1c1nc2ccccc2[nH]1` yielded a GI50 of 43300 nM and a TGI greater than 100000 nM.
`COc1cc(-c2ccc3cc(OC)c(OC)c(OC)c3c2)cc(OC)c1OC` was tested, and the GI50 was 3300 nM and the TGI was greater than 100000 nM.
With `COc1ccc2nc3cc(Cl)ccc3c(NCCNCC(C)O)c2c1` (centres undefined) the GI50 was 1550 nM and the TGI was 3360 nM.
`O=C(Nc1ccc(Oc2ccc(Nc3nc4ccccc4s3)cc2)cc1)Nc1ccc(Cl)c(C(F)(F)F)c1` showed a GI50 of 405 nM and a TGI of 2200 nM.
With `CCCCCCCCCCCCCCCC[N+](C)(C)Cc1ccccc1` the GI50 was 328 nM and the TGI was 1200 nM.
Work on `CCN(C(=O)N1CCN(c2cc3c(cc2F)c(=O)c(C(=O)O)cn3C2CC2)CC1)c1nc(-c2ccc(Cl)cc2)cs1` yielded a GI50 of 1490 nM and a TGI of 6790 nM.
With `COc1cccc(-c2nc(-c3ccc(NC(=O)OC(C)C)cc3)[nH]c2-c2ccnc(Br)c2)c1` the GI50 was 2030 nM and the TGI was 6500 nM.
Molecule `CCn1c(-c2nonc2N)nc2c(C#CC(C)(C)O)nc(OC[C@@H](N)c3ccccc3)cc21` has a GI50 of 4060 nM and a TGI of 7680 nM.
`O=C(/C(=C/c1ccc([N+](=O)[O-])cc1)SCc1ccccc1)c1ccc(Cl)cc1` showed a GI50 of 2250 nM and a TGI of 5830 nM.
Molecule `O=C(N/N=C/c1ccc[nH]1)c1[nH]c2ccc(Br)cc2c1-c1ccccc1` has a GI50 of 196 nM and a TGI of 1150 nM.
Molecule `O=C(CCCSc1nc(-c2ccccc2)cc(-c2ccccc2)n1)NO` has a GI50 of 1490 nM and a TGI of 4690 nM.
With `CCN1C(=O)N(c2ccccc2)C2NC(=S)N(/N=C/C=C/c3ccccc3OC)C21` (centres undefined) the GI50 was 114 nM and the TGI was 14200 nM.
For `COCCOc1ccc(-c2nc3ccc(-c4nc5ccc(N6CCN(C)CC6)cc5[nH]4)cc3[nH]2)cc1`, the GI50 was 1420 nM and the TGI was 4160 nM.
Work on `Nc1ccc(C2=NNC(=O)Cc3cc4c(cc32)OCCO4)cc1Cl` yielded a GI50 of 1580 nM and a TGI of 15900 nM.
`CCN(Cc1ccc(F)cc1)c1cc(Cl)c(CO)c(Cl)c1` was tested, and the GI50 was 1890 nM and the TGI was 6340 nM.
`Clc1cccc(/C=N/Nc2nc(N/N=C/c3cccc(Cl)c3)nc(N3CCOCC3)n2)c1` gave a GI50 of 1650 nM and a TGI of 4280 nM.
